Test results from patent US5077034A, “Treatment of tumors with 5-radioiodo-2'-deoxyuridine” (priority 1990, dated 1991).

What was measured:
[1] = tested on: murine ovarian tumor (MOT); assay: scintigraphic imaging in MOT-bearing and control mice; assay type: in vivo, C3HeB/FeJ mice
[2] = tested on: murine ovarian tumor (MOT); assay: tumor cell survival after treatment of mouse ascites tumor (MOT); assay type: in vivo, C3HeB/FeJ mice
Procedure: (§1) The murine ovarian tumor (MOT) used in these experiments arose spontaneously in the ovary of a C3H mouse and is maintained in our laboratories by serial intraperitoneal [i.p.] transplantation in female C3HeB/FeJ mice. We have examined the appropriateness of the i.p. route for IUdR administration as a means to (i) bypass the rapid intrahepatic dehalogenation of this agent, and (ii) obtain high tumor to nontumor ratios. In these experiments, mice were injected with 10^6 tumor cells 24 h prior to the i.p. administration of ^125 IUdR [5 injections, 4 h apart]. […] Tumor-to-normal-tissue ratios derived from th biodistribution results ranged from 20 for organs with actively proliferating cells (for example uterus, intestine, stomach) to over 400 for organs with nondividing cells (brain, heart).
(§2) The tumor used in these experiments is the same murine ovarian tumor desoribed above. We have determined the median survival of mice after i.p. challenge with various tumor cell inocula.
The relatively long survival of tumor-bearing mice facilitates quantitative evaluation of tumor cell killing after treatment with ^125 IUdR and can be used to calculate a cellular survival fraction. We have, therefore, studied tumor cell survival as a function of the dose of ^125 IUdR administered i.p. at 4 h intervals beginning 24 h after tumor cell i.p. inoculation [10^5 -10^6 cells].
When mice are treated with four doses of ^125 IUdR at 4-h intervals and the survival fraction plotted as a function of the dose per treatment, a rapid decrease in the tumor cell survival fraction [10^-3 ] is observed at doses of 20 μCi per treatment with the curve being flat at higher levels [FIG. 6]. When seven consecutive injections of ^125 IUdR are given, a similar steep reduction in tumor cell survival is also observed; the plateau in this regimen occurs at a survival fraction of 10^-5.

[3] = tested on: murine ovarian tumor (MOT); assay: median survival of tumor-bearing (MOT ascites) mice; assay type: in vivo, C3HeB/FeJ mice; details: 5 i.p. injections, 4 h intervals, 24 h post i.p. tumor inoculation; FIG. 7; dose-dependent
Procedure: as §1, §2

[4] = tested on: cultured mammalian cells; details: when incorporated into nuclear DNA; in vitro; cited from earlier work
[5] = tested on: 9L gliosarcoma; assay: scintigraphic imaging of intracerebral 9L gliosarcoma-bearing and sham-operated rats
[6] = biodistribution of radioactivity 40 h after intracerebral injection in 9L gliosarcoma-bearing and sham-operated rats; details: rat, right brain
[7] = tested on: 9L gliosarcoma; assay: as above
[8] = catabolism/dehalogenation of IUdR in vivo; details: IUdR escaping from the CNS
[9] = later time points (2, 16 and 24 hr), single injection of 300 μCi

O=c1[nH]c(=O)n([C@H]2C[C@H](O)[C@@H](CO)O2)cc1[123I] [^123 IUdR, 5-[^123 I/^125 I]iodo-2'-deoxyuridine]
abdominal radioactivity, tumor-bearing and control mice ([1]; 1 h after single injection of 300 μCi): focal localization of radioactivity | abdominal activity, animals without tumor [1, 9]: cleared from the abdomen | focal area of abdominal activity, MOT-bearing mice [1, 9]: persisted only in MOT-bearing mice | tumor cell survival fraction as a function of dose ([2]; 5 i.p. injections, 4 h intervals, 24 h post i.p. tumor inoculation, FIG. 8): exponential decrease | median survival of tumor-bearing animals [3]: prolongs median survival | toxicity to cultured mammalian cells [4]: extremely toxic | activity in the thyroid ([5]; 0.1% potassium iodide in drinking water 48 h prior): No activity was seen | activity within the head region at subsequent intervals ([5]; 12-38 h, all tumor-bearing animals): persistence of the activity | bladder and stomach activities at subsequent intervals ([5]; 12-38 h, both groups, mainly associated with stomach contents and urine): still observed in both groups | activity in the head ([5]; 1 h after intracerebral injection, tumor-bearing [n=16] and sham-operated [n=8]): showed activity in the head | clearance of the activity from the head ([5]; all control (sham-operated) animals): ≤ 12 h | activity in the stomach and the bladder ([5]; scintigraphy, 1 h after intracerebral injection): evident | dehalogenation and excretion of free iodine ([5]; suggested by stomach and bladder activity, 1 h): rapid | tissue uptake at 40 h [6]: 0.36 ± 0.14 %ID/g | tissue uptake at 40 h ([6]; uptake in right brain [injected side], sham-operated controls, 40 h after injection, mean±SD): 0.09 ± 0.02 %ID/g | activity in stomach and bladder ([7]; 40 h, mainly associated with the stomach contents and with urine): high activities | activity in all other normal tissues ([7]; 40 h, with the exception of the stomach and the bladder): low | uptake in a tumor that could be precisely excised ([7]; one animal, 40 h after injection): 12 % of the ID

O=c1[nH]c(=O)n([C@H]2C[C@H](O)[C@@H](CO)O2)cc1[125I] [^125 IUdR, 5-[^123 I/^125 I]iodo-2'-deoxyuridine]
tumor cell survival fraction ([2]; four i.p. doses at 4-h intervals, 20 μCi per treatment, curve flat at higher levels): 10^-3 | tumor cell survival fraction (plateau) ([2]; seven consecutive i.p. injections): 10^-5 | toxicity to cultured mammalian cells [4]: extremely toxic

O=c1[nH]c(=O)n([C@H]2C[C@H](O)[C@@H](CO)O2)cc1I [IUdR, 5-Iodo-2'-deoxyuridine]
catabolism/dehalogenation [8]: rapidly

O=c1[nH]c(=O)n([C@H]2C[C@H](O)[C@@H](CO)O2)cc1[131I] [IUdR radiolabeled with ^131 I, reference compound]
decrease in tumor cell survival ([2]; equivalent doses): does not result in anv decrease in survival
